# From ChEMBL document CHEMBL3102765, “Unsymmetrical 1,5-diaryl-3-oxo-1,4-pentadienyls and their evaluation as antiparasitic agents” (Bioorg Med Chem, 2014)
# Legend:
# Trypanosoma cruzi [1] = experiment: Antiparasitic activity against epimastigote form of Trypanosoma cruzi Y after 96 hrs by hemocytometry; format: functional, organism-based
# [2] = Cytotoxicity against monkey LLC-MK2 cells after 48 hrs by MTT assay; format: cell-based, Macaca mulatta; conditions: rhesus monkey
# Trypanosoma cruzi [3] = experiment: Antiparasitic activity against trypomastigote form of Trypanosoma cruzi Y infected in LLCMK2 cells assessed as parasite lysis after 24 hrs by Pizzi-Brener method; format: functional, organism-based; conditions: LLC-MK2, 24 h
# [4] = Cytotoxicity against mouse J774A1 cells after 48 hrs by MTT assay; format: cell-based, J774.A1
# Leishmania amazonensis = experiment: Antiparasitic activity against promastigote form of Leishmania amazonensis MHOM/BR/Josefa after 72 hrs by hemocytometry; format: functional, organism-based
IC50 (Trypanosoma cruzi [1]) [µM],EC50 (Trypanosoma cruzi [3]) [µM],IC50 (Leishmania amazonensis) [µM],SMILES,CC50 at 48 h [2] [µM],CC50 at 48 h [4] [µM]
> 100,> 100,20.1,COc1ccc(/C=C/C(=O)/C(C)=C/c2ccc(N(C)C)cc2)cc1,285,34.3
> 100,> 100,> 100,C/C(=C\c1ccc(N(C)C)cc1)C(=O)/C=C/c1ccc([N+](=O)[O-])cc1,167,967
25.1,> 100,20.5,C/C(=C\c1ccc(N(C)C)cc1)C(=O)/C=C/c1ccc(N(C)C)cc1,314,10
> 100,> 100,> 100,CC(=O)/C(C)=C/c1ccccc1,688,742
> 100,> 100,> 100,COc1ccc(/C=C(\C)C(C)=O)cc1,280,240
82.2,> 100,> 100,CC(=O)/C(C)=C/c1ccc([N+](=O)[O-])cc1,266,70.5
> 100,> 100,> 100,CC(=O)/C(C)=C/c1ccc(N(C)C)cc1,150,160
15.9,71.7,15.3,C/C(=C\c1ccccc1)C(=O)/C=C/c1ccccc1,33.6,34.5
14.3,> 100,20.4,COc1ccc(/C=C/C(=O)/C(C)=C/c2ccccc2)cc1,93,51
16.9,65,11.6,C/C(=C\c1ccccc1)C(=O)/C=C/c1ccc([N+](=O)[O-])cc1,43.3,26
13.3,> 100,20,C/C(=C\c1ccccc1)C(=O)/C=C/c1ccc(N(C)C)cc1,53,20.2
16.7,73.3,22.3,COc1ccc(/C=C(\C)C(=O)/C=C/c2ccccc2)cc1,44,54
23.6,> 100,21.8,COc1ccc(/C=C/C(=O)/C(C)=C/c2ccc(OC)cc2)cc1,75,34.1
25.2,> 100,14.8,COc1ccc(/C=C(\C)C(=O)/C=C/c2ccc([N+](=O)[O-])cc2)cc1,20.1,30
21.3,> 100,18,COc1ccc(/C=C(\C)C(=O)/C=C/c2ccc(N(C)C)cc2)cc1,411,36.2
3.5,17.5,13.4,C/C(=C\c1ccc([N+](=O)[O-])cc1)C(=O)/C=C/c1ccccc1,264,47.3
10,73.3,15.5,COc1ccc(/C=C/C(=O)/C(C)=C/c2ccc([N+](=O)[O-])cc2)cc1,172,36.6
1.8,15.4,3.4,C/C(=C\c1ccc([N+](=O)[O-])cc1)C(=O)/C=C/c1ccc([N+](=O)[O-])cc1,32.5,43
14,> 100,12,C/C(=C\c1ccc([N+](=O)[O-])cc1)C(=O)/C=C/c1ccc(N(C)C)cc1,25.9,24.7
24.1,78.3,21.5,C/C(=C\c1ccc(N(C)C)cc1)C(=O)/C=C/c1ccccc1,191,28.5
,,0.06,C[C@@H]1[C@H](O)[C@@H](C)/C=C/C=C/C=C/C=C/C=C/C=C/C=C/[C@H](O[C@@H]2O[C@H](C)[C@@H](O)[C@H](N)[C@@H]2O)C[C@@H]2O[C@](O)(C[C@@H](O)C[C@@H](O)[C@H](O)CC[C@@H](O)C[C@@H](O)CC(=O)O[C@H]1C)C[C@H](O)[C@H]2C(=O)O [AMPHOTERICIN B],,
,,,O=C(Cn1ccnc1[N+](=O)[O-])NCc1ccccc1 [BENZNIDAZOLE],615,
